From ChEMBL document CHEMBL4831514, “Novel betulin dicarboxylic acid ester derivatives as potent antiviral agents: Design, synthesis, biological evaluation, structure-activity relationship and in-silico study” (Eur J Med Chem, 2021) come the findings set out here.

The subject of series [1] is Human alphaherpesvirus 1. Kind of series: Antiviral activity against Human herpesvirus 1 MacIntyre infected in A549 cells assessed as reduction in virus titer preincubated for 24 hrs followed by viral infection and measured after 72 hrs by microscopic analysis. It counts as functional, organism-based.
Series [2] deals with Human alphaherpesvirus 1. Nature of the series: Potency index, ratio of acyclovir EC50 to test compound EC50 for antiviral activity against Human herpesvirus 1 MacIntyre infected in A549 cells assessed as reduction in virus titer treated 1 hr post viral infection followed by replacement with fresh medium with compounds and measured after 48 hrs by MTT assay. The format is functional. For orientation: Formazan colour is commonly taken as a measure of viable cells.

A further series deals with Enterovirus E. Nature of the series: Antiviral activity against Enterovirus E LCR-4 infected in A549 cells assessed as inhibition of viral adsorption at early stage of replication treated for 1 hr during viral infection followed by replacement with fresh medium and measured after 72 hrs by MTT assay. It counts as functional, organism-based.
Series [3] deals with Vesicular stomatitis virus. Kind of series: Antiviral activity against Vesicular stomatitis virus Indiana infected in A549 cells assessed as reduction in virus titer preincubated for 24 hrs followed by viral infection and measured after 72 hrs by microscopic analysis. The format is functional, organism-based.
Series [4] is described as follows: (§1) Cytotoxicity against human A549 cells assessed as reduction in cell viability incubated for 48 hrs by MTT assay. The format is cell-based. The settings on record: A549 cells.
Another series relates to A549. Described as §1. It counts as cell-based. The settings on record: a549, 48 h.
The subject of series [5] is Human adenovirus 5. Kind of series: Antiviral activity against Human adenovirus 5 Adenoid 75 infected in A549 cells assessed as inhibition of viral adsorption at early stage of replication treated for 1 hr during viral infection followed by replacement with fresh medium and measured after 72 hrs by MTT assay. It counts as functional, organism-based.
The test system of series [6] is Human adenovirus 5. Nature of the series: Antiviral activity against Human adenovirus 5 Adenoid 75 infected in A549 cells assessed as reduction in virus titer preincubated for 24 hrs followed by viral infection and measured after 72 hrs by microscopic analysis. It counts as functional, organism-based.
In series [7] the test system is Human alphaherpesvirus 1. Nature of the series: Antiviral activity against Human herpesvirus-1 MacIntyre infected in A549 cells assessed as inhibition of viral adsorption at early stage of replication treated for 1 hr during viral infection followed by replacement with fresh medium and measured after 48 hrs by MTT assay. The format is functional, organism-based.
The subject of series [8] is Human alphaherpesvirus 1. Kind of series: Antiviral activity against Human herpesvirus 1 MacIntyre infected in A549 cells assessed as reduction in virus titer treated 1 hr post viral infection followed by replacement with fresh medium with compounds and measured after 48 hrs by MTT assay. The settings on record: Human alphaherpesvirus 1, MacIntyre. It counts as functional, organism-based.

The nature of series [9]: Selectivity index, ratio of CC50 for cytotoxicity against human A549 cells to EC50 for antiviral activity against Human herpesvirus 1 MacIntyre infected in A549 cells assessed as reduction in virus titer treated 1 hr post viral infection followed by replacement with fresh medium with compounds and measured after 72 hrs by MTT assay. The format is toxicity, cell-based. The settings on record: read-out: Selectivity Index.

The test system of a further series is MDCK. Kind of series: Cytotoxicity against MDCK cells assessed as reduction in cell viability incubated for 72 hrs by MTT assay. The conditions noted are these: dog, mdck, 72 h. It counts as cell-based, Canis lupus familiaris.

In general, CC50 refers to the concentration that lowers cell viability or growth by half. The term EC50 denotes the concentration at which the effect is half-maximal.

Active and inactive are the calls of the source. No cut-off for these calls is given here.

For the compound `C=C(C)[C@@H]1CC[C@]2(COC(=O)/C=C(\C)C(=O)N3CCCCC3)CC[C@]3(C)[C@H](CC[C@@H]4[C@@]5(C)CC[C@H](O)C(C)(C)[C@@H]5CC[C@]43C)[C@@H]12`, the outcome (in the series with Human alphaherpesvirus 1 [1]; with Enterovirus E; in [3]; with Human adenovirus 5 [5]; in the series with Human adenovirus 5 [6]; in the series with Human alphaherpesvirus 1 [7]) was inactive. In the series with Human alphaherpesvirus 1 [2], the “Ratio EC50” value stood at 3. In addition, the CC50 at 48 h in [4] stood at 68.7 µM. For the same compound, the CC20 in the series on A549 was found to be 34.34 µM; in the series on MDCK, 4.26 µM. Further, in the series on Human alphaherpesvirus 1 [8], the EC50 amounted to 17.2 µM. Moreover, in series [9], the selectivity ratio at 72 h came out at 4.
Regarding `C=C(C)[C@@H]1CC[C@]2(COC(=O)c3ccccc3C(=O)N3CCCCC3)CC[C@]3(C)[C@H](CC[C@H]4C3(C)CC[C@H]3C(C)(C)[C@@H](O)CC[C@@]34C)[C@@H]12` (single isomer, unassigned), the outcome (with Human alphaherpesvirus 1 [1]; with Enterovirus E; in series [3]; with Human adenovirus 5 [5]; in the series with Human adenovirus 5 [6]; with Human alphaherpesvirus 1 [7]) was inactive. In addition, in the series with Human alphaherpesvirus 1 [2], the “Ratio EC50” value was 3. Also, the CC50 at 48 h in series [4] worked out at 65.4 µM. For the same compound, the results for the CC20 with A549 and in the series with MDCK were 65.45 µM and 32.72 µM, respectively. For the same compound, the EC50 in the series on Human alphaherpesvirus 1 [8] stood at 32.7 µM. Besides, the selectivity ratio at 72 h in series [9] is 2.
For `C=C(C)[C@@H]1CC[C@]2(COC(=O)CCCC(=O)N3CCCCC3)CC[C@]3(C)[C@H](CC[C@@H]4[C@@]5(C)CC[C@H](O)C(C)(C)[C@@H]5CC[C@]43C)[C@@H]12`, the outcome (in the series with Human alphaherpesvirus 1 [1]; with Enterovirus E; in series [3]; with Human adenovirus 5 [5]; in the series with Human adenovirus 5 [6]; in the series on Human alphaherpesvirus 1 [7]) was inactive. Further, the “Ratio EC50” value with Human alphaherpesvirus 1 [2] amounted to 3. Moreover, the figures for the CC20 in the series with A549 and in the series on MDCK were 17.12 µM and 4.25 µM, respectively.
For `C#CC1(NC(=O)CCCC(=O)OC[C@]23CCC(C(=C)C)[C@@H]2[C@H]2CC[C@@H]4[C@@]5(C)CC[C@H](O)C(C)(C)[C@@H]5CC[C@@]4(C)[C@]2(C)CC3)CCCCC1` (single isomer, unassigned), the result (in the series on Human alphaherpesvirus 1 [1]; with Enterovirus E; in series [3]; in the series on Human adenovirus 5 [5]; with Human adenovirus 5 [6]; in the series on Human alphaherpesvirus 1 [7]) was inactive. Moreover, the CC20 in the series with A549 and in the series with MDCK was 108.7 µM in each case.
Turning to `C=C(C)[C@@H]1CC[C@]2(COC(=O)CCCCCCCCCC(=O)N3CCOCC3)CC[C@]3(C)[C@H](CC[C@@H]4[C@@]5(C)CC[C@H](O)C(C)(C)[C@@H]5CC[C@]43C)[C@@H]12`, the result (in the series on Human alphaherpesvirus 1 [1]; with Enterovirus E; in series [3]; in the series with Human adenovirus 5 [5]; in the series on Human adenovirus 5 [6]; with Human alphaherpesvirus 1 [7]) was inactive. Besides, the “Ratio EC50” value with Human alphaherpesvirus 1 [2] was determined as 3. The CC50 at 48 h in series [4] was determined as 164 µM. Moreover, the results for the CC20 with A549 and in the series on MDCK were 34.77 µM and 139.08 µM, respectively. The EC50 with Human alphaherpesvirus 1 [8] is 34.8 µM. The selectivity ratio at 72 h in series [9] was found to be 4.7.
Consider `C=C(C)[C@@H]1CC[C@]2(COC(=O)CCC(=O)N3CCSCC3)CC[C@]3(C)[C@H](CC[C@@H]4[C@@]5(C)CC[C@H](O)C(C)(C)[C@@H]5CC[C@]43C)[C@@H]12`, for which the outcome (in the series with Human alphaherpesvirus 1 [1]; in the series on Enterovirus E; in series [3]; with Human adenovirus 5 [5]; in the series with Human adenovirus 5 [6]; in the series on Human alphaherpesvirus 1 [7]) was inactive. Also, the CC20 came out at 62.42 µM in the series with A549 and 124.84 µM with MDCK.
Turning to `C=C(C)[C@@H]1CC[C@]2(CO)CC[C@]3(C)[C@H](CC[C@@H]4[C@@]5(C)CC[C@H](O)C(C)(C)[C@@H]5CC[C@]43C)[C@@H]12` [BETULIN], the outcome (with Human alphaherpesvirus 1 [1]; in the series on Enterovirus E; in series [3]; with Human adenovirus 5 [5]; in the series with Human adenovirus 5 [6]; in the series with Human alphaherpesvirus 1 [7]) was inactive. Moreover, the CC20 in the series with A549 and in the series with MDCK was 28.22 µM throughout.
Take `C=C(C)[C@@H]1CC[C@]2(COC(=O)CCC(=O)N3CCCCC3)CC[C@]3(C)[C@H](CC[C@@H]4[C@@]5(C)CCC(O)C(C)(C)[C@@H]5CC[C@]43C)[C@@H]12` (single isomer, unassigned): the result (in the series with Human alphaherpesvirus 1 [1]; in the series on Enterovirus E; in series [3]; in the series on Human adenovirus 5 [5]; in the series with Human adenovirus 5 [6]; in the series on Human alphaherpesvirus 1 [7]) was inactive. Further, the CC20 worked out at 69.83 µM with A549 and 17.46 µM in the series with MDCK.
As to `C#CCNC(=O)c1cccc(C(=O)OC[C@]23CC[C@@H](C(=C)C)[C@@H]2[C@H]2CC[C@@H]4C5(C)CC[C@H](O)C(C)(C)[C@@H]5CC[C@@]4(C)[C@]2(C)CC3)c1` (single isomer, unassigned), the outcome (in the series with Human alphaherpesvirus 1 [1]; in the series on Enterovirus E; in series [3]; in the series with Human adenovirus 5 [5]; with Human adenovirus 5 [6]; in the series with Human alphaherpesvirus 1 [7]) was inactive. For the same compound, the CC20 in the series on A549 and in the series on MDCK was 159.24 µM throughout.
Take `C#CC1(NC(=O)c2cccc(C(=O)OC[C@]34CC[C@@H](C(=C)C)[C@@H]3[C@H]3CC[C@@H]5[C@@]6(C)CC[C@H](O)C(C)(C)[C@@H]6CC[C@@]5(C)[C@]3(C)CC4)c2)CCCCC1`: the outcome (in the series with Human alphaherpesvirus 1 [1]; in the series on Enterovirus E; in series [3]; in the series on Human adenovirus 5 [5]; in the series on Human adenovirus 5 [6]; in the series on Human alphaherpesvirus 1 [7]) was inactive. The CC20 in the series on A549 and in the series on MDCK was 104.82 µM throughout.
For the compound `C=C(C)[C@@H]1CC[C@]2(COC(=O)c3cccc(C(=O)N4CCOCC4)c3)CC[C@]3(C)[C@H](CC[C@@H]4[C@@]5(C)CC[C@H](O)C(C)(C)[C@@H]5CC[C@]43C)[C@@H]12`, the outcome (in the series on Human alphaherpesvirus 1 [1]; in the series with Enterovirus E; in [3]; with Human adenovirus 5 [5]; in the series with Human adenovirus 5 [6]; with Human alphaherpesvirus 1 [7]) was inactive. The CC20 in the series on A549 turned out to be 71.74 µM; in the series on MDCK, 143.47 µM.
On to `C#CCNC(=O)CCC(=O)OC[C@]12CC[C@@H](C(=C)C)C1[C@H]1CC[C@@H]3[C@@]4(C)CC[C@H](O)C(C)(C)[C@@H]4CC[C@@]3(C)[C@]1(C)CC2` (single isomer, unassigned), for which the result (in the series with Human alphaherpesvirus 1 [1]; in the series on Enterovirus E; in series [3]; with Human adenovirus 5 [5]; with Human adenovirus 5 [6]; in the series with Human alphaherpesvirus 1 [7]) was inactive. Also, the CC20 in the series on A549 was 10.78 µM; in the series on MDCK it was 5.34 µM.
Consider `C#CCNC(=O)CCCC(=O)OC[C@]12CC[C@@H](C(=C)C)[C@@H]1[C@H]1CC[C@@H]3[C@@]4(C)CC[C@H](O)C(C)(C)[C@@H]4CC[C@@]3(C)[C@]1(C)CC2`, for which the outcome (in the series with Human alphaherpesvirus 1 [1]; in the series on Enterovirus E; in series [3]; with Human adenovirus 5 [5]; with Human adenovirus 5 [6]; in the series on Human alphaherpesvirus 1 [7]) was inactive. For the same compound, the CC20 with A549 turned out to be 42.09 µM; with MDCK it was 1.18 µM.
With `C#CC1(NC(=O)CCC(=O)OC[C@]23CC[C@@H](C(=C)C)[C@@H]2[C@H]2CC[C@@H]4[C@@]5(C)CC[C@H](O)C(C)(C)[C@@H]5CC[C@@]4(C)[C@]2(C)CC3)CCCCC1`, the result (with Human alphaherpesvirus 1 [1]; with Enterovirus E; in [3]; in the series with Human adenovirus 5 [5]; in the series on Human adenovirus 5 [6]; with Human alphaherpesvirus 1 [7]) was inactive. Moreover, the CC20 amounted to 110.38 µM in the series on A549 and 0.77 µM in the series with MDCK.
